Test results taken from publication PMC13303826, “Nicotinonitrile based dual inhibitors of tubulin and topoisomerase II exhibit potent anticancer activity” (Scientific Reports, 2026).
Like-named read-outs stand apart in the source and are kept apart here.

Key:
MCF7 cells [1] = assay: LDH release cytotoxicity assay, MCF7; format: cell-based; settings: Homo sapiens, 48 h, mean ± SD, read-out: In vitro cytotoxicity IC50 µM ± SD, MCF7
Method: (§1) HepG2 (Human liver carcinoma), HCT116 (human colorectal carcinoma), MCF7 (human breast adenocarcinoma), and the normal human skin fibroblast (BJ-1) cell lines were purchased from the american type culture collection (Rockville, MD, USA) and maintained in RPMI-1640 medium which was supplemented with 10% heat-inactivated FBS, 100U/ml penicillin and 100U/ml streptomycin. The cells were grown at 37 °C in a humidified atmosphere of 5% CO2. All experiments were conducted thrice in triplicate (n = 3). All the values were represented as means ± SD. Significant differences between the means of parameters as well as IC50s were determined by probit analysis using SPSS software program (SPSS Inc., Chicago, IL).
(§2) To determine the effect of each synthesized compound on membrane permeability in HepG2, MCF-7 and HCT116 cancer cell lines as well as BJ-1 normal cell line, a lactate dehydrogenase (LDH) release assay was used[29]–[33]. The cells were seeded in 24-well culture plates at a density of 1 × 10^4 cells/well in 500 µL volume and allowed to grow for 18 h before treatment. After treatment with a series of different concentrations of each compound or DOX (positive control), the plates were incubated for 48 h. Then, the supernatant (40 µL) was transferred to a new 96 well to determine LDH release and 6% triton X-100 (40 µL) was added to the original plate for determination of total LDH. An aliquot of 0.1 M potassium phosphate buffer (100 µL, pH 7.5) containing 4.6 mM pyruvic acid was mixed to the supernatant using repeated pipetting. Then, 0.1 M potassium phosphate buffer (100 µL, pH 7.5) containing 0.4 mg/mL reduced β-NADH was added to the wells. The kinetic changes were read for 1 min using ELISA microplate reader in absorbance at wavelength 340 nm. This procedure was repeated with 40 µL of the total cell lysate to determine total LDH. The percentage of LDH release was determined by dividing the LDH released into the media by the total LDH following cell lysis in the same well. The cell Passage numbers for MCF 7 = P13, Hep G2 = P15, HCT 116 = P 9.
(§3) All experiments were conducted in triplicate (n = 3). All the values were represented as mean ± SD. Significant differences between the means of parameters as well as IC50s were determined by probit analysis using SPSS software program (SPSS Inc., Chicago, IL).

Topo II = assay: Inhibition of topoisomerase II in MCF-7 cells (TOP2B sandwich ELISA); format: cell-based, human; settings: MCF7 cells, concentration not given
Method: Mouse TOP2B/Topoisomerase II Beta ELISAKit (Sandwich ELISA) is designed for the quantitative measurement of Topo II enzyme.
This assay is based on the sandwich ELISA principle. Each well of the supplied microtiter plate has been pre-coated with a target specific capture antibody. Standards or samples are added to the wells, and the target antigen binds to the capture antibody. Unbound standard or sample is washed away. A biotin-conjugated detection antibody is then added which binds to the captured antigen. Unbound detection antibody is washed away. An avidin-horseradish peroxidase (HRP) conjugate is then added which binds to the biotin. Unbound avidin-HRP conjugate is washed away. A TMB substrate is then added which reacts with the HRP enzyme resulting in color development. A sulfuric acid stop solution is added to terminate color development reaction and then the optical density (OD) of the well is measured at a wavelength of 450 nm ± 2 nm. An OD standard curve is generated using known antigen concentrations; the OD of an unknown sample can then be compared to the standard curve to determine its antigen concentration. Each experiment was repeated two times (Table 3).

beta-tubulin = assay: Inhibition of tubulin polymerization in MCF-7 cells (beta-tubulin SimpleStep ELISA); format: cell-based, human; settings: MCF7 cells, concentration not given
From the text: Beta-tubulin in vitro simple step ELISA® (Enzyme-Linked Immunosorbent Assay) kit is designed for quantitative measurement of beta-tubulin protein in human cell and tissue homogenate extract samples.
The SimpleStep ELISA® employs an affinity tag labeled capture antibody and a reporter conjugated detector antibody which immunocapture the sample analyte in solution. This entire complex (capture antibody/analyte/detector antibody) is in turn immobilized via immunoaffinity of an anti-tag antibody coating the well. To perform the assay, samples or standards are added to the wells, followed by the antibody mix. After incubation, the wells are washed to remove unbound material. TMB development solution is added and during incubation is catalyzed by horseradish peroxidase (HRP), generating blue coloration. This reaction is then stopped by addition of stop solution completing any color change from blue to yellow. Signal is generated proportionally to the amount of bound analyte and the intensity is measured at 450 nm. Optionally, instead of the endpoint reading, development of TMB can be recorded kinetically at 600 nm. The concentration of beta-tubulin protein in the samples is determined by comparing the optical density (OD) of the samples to the standard curve. Each experiment was repeated two times (Table 2).

BJ1 normal cells = assay: LDH release cytotoxicity assay, normal skin fibroblasts BJ1; format: cell-based, human; settings: non-tumor BJ1 fibroblasts
Method: as §1, §2, §3

MCF7 cells [2] = assay: Propidium iodide flow cytometry cell cycle analysis; format: cell-based, human; settings: compound at 2.4 µM
Method: Propidium iodide flow cytometry kit (ab139418) is designed for quantitative DNA content analysis in tissue culture cells, so we performed propidium iodide cell cycle analysis for active compounds 20 and 26 using MCF-7 cell line. Propidium iodide staining of DNA is the classic means of cell cycle analysis. The staining procedure takes less than 1 h of total processing time and cells fixed in ethanol are stable for at least several weeks at 4 °C.
Propidium iodide is a fluorescent molecule that binds nucleic acid with little or no sequence preference. Because propidium iodide binds RNA as well as DNA, RNaseA (ribonuclease A) is included in this kit to digest cellular RNA and thus decrease background RNA staining from the experiment. Since propidium iodide is membrane impermeant, ethanol is used to both fix and permeabilize cells. A flow cytometer is required for quantitative analysis. First, fix MCF-7 cells in 66% ethanol, store at + 4 °C for 2 h to 4 weeks and rehydrate cells in PBS. Finally, stain cells with propidium iodide then add RNase for 30 min. Collect propidium iodide fluorescence intensity on FL2 of a flow cytometer and […] laser excitation. A useful way to display propidium iodide data is on a histogram with the cell count on the y-axis and the propidium iodide fluorescence intensity on the x-axis.

HCT116 cells = assay: LDH release cytotoxicity assay, HCT116; format: cell-based; settings: Homo sapiens, HCT-116, 48 h, mean ± SD, read-out: In vitro cytotoxicity IC50 µM ± SD, HCT116
Method: as §1, §2, §3

MCF7 cells [3] = assay: Apoptosis and necrosis analysis by annexin V-FITC/PI staining; format: cell-based, human; settings: at IC50 (2.4 µM), 48 h
From the text: Annexin V apoptosis detection kit is used for analyzing apoptosis and necrosis for active compounds 20 and 26 in MCF7 cells using annexin V-FITC/PI dual staining followed by flow cytometry quantification and fluorescence microscopy detection.
Detection is based on the observation that soon after initiating apoptosis, cells translocate the membrane phosphatidylserine (PS) from the inner face of the plasma membrane to the cell surface. Once on the cell surface, PS can be easily detected by staining with a fluorescent conjugate of annexin V, a protein that has a high affinity for PS. Detection can be analyzed by flow cytometry or/and by fluorescence microscopy. The kit can differentiate between apoptosis and necrosis when performing both annexin V-FITC and PI staining. Assay is summarized as first, induce apoptosis by desired method, collect 1–5 × 10^5 cells by centrifugation, resuspend cells in 500 µl of 1× binding buffer, add 5 µl of annexin V-FITC and 5 µl of propidium iodide and finally incubate at room temperature for 5 min in the dark. After that, analyze annexin V-FITC binding by flow cytometry (Ex = 488 nm; Em = 530 nm) using FITC signal detector (usually FL1) and PI staining by the phycoerythrin emission signal detector (usually FL2) then, observe the cells under a fluorescence microscope using a dual filter set for FITC & rhodamine. Cells that have bound annexin V-FITC will show green staining in the plasma membrane. Cells that have lost membrane integrity will show red staining (PI) throughout the nucleus and a halo of green staining (FITC) on the cell surface.

HepG2 cells = assay: LDH release cytotoxicity assay, HepG2; format: cell-based; settings: Homo sapiens, 48 h, mean ± SD, read-out: In vitro cytotoxicity IC50 µM ± SD, HepG2
Method: as §1, §2, §3

HeLa = settings: Fig. 1, cited from earlier work
HepG2 = tested on: HepG2; design: method as in PMID 31278032; settings: Fig. 1A; cited from earlier work
NCI = tested on: NCI; design: method as in PMID 8392342; settings: Fig. 1B; cited from earlier work
HT-29 = tested on: HT-29; design: method as in PMID 25840421, PMID 39533473; settings: Fig. 1B; cited from earlier work
colon-26 = tested on: colon-26; design: method as in PMID 24669888, PMID 30111667, PMID 9873694; settings: Fig. 1C; cited from earlier work
MDA-MB-231 = tested on: MDA-MB-231; design: method as in ref 5, 7 (CA-4), ref 13-15 (VII); settings: Fig. 1; 7 (CA-4), ref 13-15 (VII); cited from earlier work
MCF-7 = tested on: MCF-7; design: method as in ref 8 (podophyllotoxin), ref 13-15 (VIII); settings: Fig. 1; ref 8 (podophyllotoxin), ref 13-15 (VIII); cited from earlier work
HL-60 = tested on: HL-60; design: method as in ref 4, 12 (YCH337), ref 13-15 (VIII); settings: Fig. 1; 12 (YCH337), ref 13-15 (VIII); cited from earlier work
A549 = tested on: A549; design: method as in PMID 33465263; settings: Fig. 1A; cited from earlier work
[4] = ref 10 (etoposide), 12 (YCH337)

COc1cc(-c2cc(-c3cc(OC)c(OC)c(OC)c3)c(C#N)c(Cl)n2)cc(OC)c1OC [Compound 20, 2-Chloro-4,6-bis(3,4,5-trimethoxyphenyl)nicotinonitrile]
IC50 (MCF7 cells [1]): 2.4 ± 0.1 µM
Topo II % inhibition (Topo II): 70.3%
tubulin polymerization % inhibition (beta-tubulin): 74.7%
Cytotoxicity / selectivity toward BJ1 normal cells (in words) (BJ1 normal cells): good selectivity
%G0-G1 (MCF7 cells [2]): 39.69%
%G2/M (MCF7 cells [2]): 43.3%
%S (MCF7 cells [2]): 17.01%
IC50 (HCT116 cells): 34.4 ± 3.2 µM
Apoptosis Early (MCF7 cells [3]): 11.91%
Apoptosis Late (MCF7 cells [3]): 22.63%
Apoptosis Total (MCF7 cells [3]): 38.41%
Necrosis (MCF7 cells [3]): 3.87%
IC50 (HepG2 cells): 6.1 ± 0.5 µM

COc1cc([C@@H]2c3cc4c(cc3[C@@H](O[C@@H]3O[C@@H]5CO[C@@H](C)O[C@H]5[C@H](O)[C@H]3O)[C@H]3COC(=O)[C@H]23)OCO4)cc(OC)c1O [Etoposide]
IC50 (HeLa; [4]): 12200 nM
IC50 (HepG2): 10500 nM

COc1cc([C@@H]2c3[nH]c4ccccc4c3C[C@H]3COC(=O)N32)cc(OC)c1O [Azatoxin (NSC 640737), azatoxin]
IC50 (NCI): 130 nM

COC(=O)C1C(c2cc(OC)c(OC)c(OC)c2)c2cc3c(cc2C(n2cc(-c4ccc(F)cc4)nn2)C1C=O)OCO3 (stereo not drawn) [VI]
IC50 (HT-29): 40 nM

COc1ccc(-c2nnnn2-c2cc(OC)c(OC)c(OC)c2)cc1N [IX]
IC50 (colon-26): 7.2 nM

COc1ccc(-c2cccc(-c3ccc(OC)cc3OC)n2)cc1 [VII]
IC50 (HeLa; 7 (CA-4), ref 13-15 (VII)): 3.8 nM
IC50 (MDA-MB-231): 3.1 nM

COc1ccc(-c2cc(-c3cc(OC)c(OC)c(OC)c3)c(C#N)c(=O)[nH]2)cc1 [VIII]
IC50 (MCF-7): 180 nM
IC50 (HL-60): 470 nM

COc1ccc(-c2cc(-c3cc(OC)c(OC)c(OC)c3)c(C#N)c3nnnn23)cc1 [Compound 26, 5-(4-methoxyphenyl)-7-(3,4,5-trimethoxyphenyl)tetrazolo[1,5-a]pyridine-8-carbonitrile]
IC50 (MCF7 cells [1]): 2.4 ± 0.1 µM
Topo II % inhibition (Topo II): 43.7%
tubulin polymerization % inhibition (beta-tubulin): 75%
Cytotoxicity / selectivity toward BJ1 normal cells (in words) (BJ1 normal cells): good selectivity
%G0-G1 (MCF7 cells [2]): 35.64%
%G2/M (MCF7 cells [2]): 50.69%
%S (MCF7 cells [2]): 13.67%
IC50 (HCT116 cells): 63.4 ± 5.3 µM
Apoptosis Early (MCF7 cells [3]): 7.58%
Apoptosis Late (MCF7 cells [3]): 28.16%
Apoptosis Total (MCF7 cells [3]): 41.26%
Necrosis (MCF7 cells [3]): 5.51%
IC50 (HepG2 cells): 6.3 ± 0.3 µM

COc1cc([C@@H]2c3cc4c(cc3[C@H](O)[C@H]3COC(=O)[C@H]23)OCO4)cc(OC)c1OC [Podophyllotoxin]
IC50 (MCF-7): 2210 nM
IC50 (A549): 1900 nM

COc1ccc(/C=C\c2cc(OC)c(OC)c(OC)c2)cc1O [CA4, Combretastatin A4]
tubulin polymerization % inhibition (beta-tubulin): 72.1%
IC50 (HeLa; 7 (CA-4), ref 13-15 (VII)): 1 nM
IC50 (MDA-MB-231): 2.8 nM

COc1ccc(O)c(C(=O)c2cnc3[nH]c4ccccc4c3c2)c1 [YCH337]
IC50 (HeLa; [4]): 60 nM
IC50 (HL-60): 210 nM
